Columns and labels:
[1] = target: T1, PI3Kδ (Homo sapiens, UniProt O00329); test: PI3 Kinase HTRF assay, PI3Kδ; type: biochemical; settings: 10 μM PIP2, 10 μM ATP; read-out: PI3K δ IC50
T1 construct: purchased Millipore Corporation 14-604-K
How it was run: (§1)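 Time-resolved FRET kit assay measuring PIP3 made from 10 μM PIP2, ATP 10 μM, 1 h room temperature. IC50 fitted from 12-point dose-response.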

[2] = target: T2, PI3Kγ (Homo sapiens, UniProt P48736); test: PI3 Kinase HTRF assay, PI3Kγ; type: biochemical; settings: 10 μM PIP2, 10 μM ATP; read-out: PI3K γ IC50
T2 construct: purchased Millipore Corporation 14-558-K
T2 sequence (P48736 whole entry): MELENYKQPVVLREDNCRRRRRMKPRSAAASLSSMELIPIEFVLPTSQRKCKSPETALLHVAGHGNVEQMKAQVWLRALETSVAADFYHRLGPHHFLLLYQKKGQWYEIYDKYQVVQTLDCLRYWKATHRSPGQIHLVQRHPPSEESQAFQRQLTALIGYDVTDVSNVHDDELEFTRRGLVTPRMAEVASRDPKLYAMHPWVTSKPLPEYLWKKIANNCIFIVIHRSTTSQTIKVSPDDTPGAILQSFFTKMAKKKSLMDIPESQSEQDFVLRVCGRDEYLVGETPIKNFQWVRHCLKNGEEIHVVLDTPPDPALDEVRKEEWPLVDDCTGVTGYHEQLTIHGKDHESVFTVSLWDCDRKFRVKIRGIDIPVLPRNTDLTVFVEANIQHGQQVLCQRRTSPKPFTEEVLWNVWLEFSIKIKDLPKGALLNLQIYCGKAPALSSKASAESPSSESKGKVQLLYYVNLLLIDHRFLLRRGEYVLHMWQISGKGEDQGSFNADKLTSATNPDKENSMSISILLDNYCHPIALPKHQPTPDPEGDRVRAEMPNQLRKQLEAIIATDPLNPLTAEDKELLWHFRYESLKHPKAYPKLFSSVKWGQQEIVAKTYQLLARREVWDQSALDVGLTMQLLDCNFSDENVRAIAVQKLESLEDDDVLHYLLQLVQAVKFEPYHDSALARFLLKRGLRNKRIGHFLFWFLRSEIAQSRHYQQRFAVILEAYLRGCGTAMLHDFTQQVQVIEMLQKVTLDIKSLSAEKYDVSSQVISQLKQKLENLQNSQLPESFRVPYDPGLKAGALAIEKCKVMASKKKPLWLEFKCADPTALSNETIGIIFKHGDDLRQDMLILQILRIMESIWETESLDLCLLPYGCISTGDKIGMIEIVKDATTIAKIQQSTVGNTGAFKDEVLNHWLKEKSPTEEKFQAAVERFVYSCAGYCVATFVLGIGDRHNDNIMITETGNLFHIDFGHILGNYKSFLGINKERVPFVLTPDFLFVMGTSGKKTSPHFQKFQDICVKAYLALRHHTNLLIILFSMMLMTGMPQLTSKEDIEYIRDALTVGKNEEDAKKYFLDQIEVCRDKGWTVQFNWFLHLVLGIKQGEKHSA
How it was run: as §1

[3] = target: T3, PI3Kα (Homo sapiens, UniProt P42336); test: PI3 Kinase HTRF assay, PI3Kα; type: biochemical; settings: 10 μM PIP2, 10 μM ATP; read-out: PI3K α IC50
T3 construct: purchased Millipore Corporation 14-602-K
T3 sequence (P42336 whole entry): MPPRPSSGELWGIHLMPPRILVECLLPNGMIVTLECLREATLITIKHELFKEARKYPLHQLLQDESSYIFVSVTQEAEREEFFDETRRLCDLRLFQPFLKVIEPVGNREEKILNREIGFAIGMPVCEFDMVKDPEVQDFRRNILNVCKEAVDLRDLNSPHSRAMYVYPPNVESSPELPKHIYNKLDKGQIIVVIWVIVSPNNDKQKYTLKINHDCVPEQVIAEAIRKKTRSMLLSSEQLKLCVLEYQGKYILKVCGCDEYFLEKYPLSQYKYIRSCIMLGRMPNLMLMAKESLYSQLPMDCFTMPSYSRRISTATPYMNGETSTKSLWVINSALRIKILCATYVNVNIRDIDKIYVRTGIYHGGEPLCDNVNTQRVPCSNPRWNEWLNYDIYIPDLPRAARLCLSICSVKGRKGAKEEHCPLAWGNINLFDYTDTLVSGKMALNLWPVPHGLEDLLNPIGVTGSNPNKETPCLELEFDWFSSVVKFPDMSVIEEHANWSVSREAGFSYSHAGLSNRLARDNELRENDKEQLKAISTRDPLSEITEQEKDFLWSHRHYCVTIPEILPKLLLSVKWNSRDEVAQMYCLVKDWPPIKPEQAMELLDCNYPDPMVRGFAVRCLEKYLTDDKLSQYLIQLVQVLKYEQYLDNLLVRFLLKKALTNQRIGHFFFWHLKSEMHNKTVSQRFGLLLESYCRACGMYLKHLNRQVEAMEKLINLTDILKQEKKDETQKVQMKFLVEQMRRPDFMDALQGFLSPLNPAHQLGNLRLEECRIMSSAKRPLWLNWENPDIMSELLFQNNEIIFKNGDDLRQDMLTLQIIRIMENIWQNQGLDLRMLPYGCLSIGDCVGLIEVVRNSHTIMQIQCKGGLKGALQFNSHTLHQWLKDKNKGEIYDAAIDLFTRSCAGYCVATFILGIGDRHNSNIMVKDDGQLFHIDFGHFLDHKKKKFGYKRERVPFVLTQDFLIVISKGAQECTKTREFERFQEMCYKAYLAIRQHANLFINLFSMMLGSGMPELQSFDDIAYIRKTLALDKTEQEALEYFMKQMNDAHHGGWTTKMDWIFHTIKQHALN
T3 sequence (P27986 whole entry partner): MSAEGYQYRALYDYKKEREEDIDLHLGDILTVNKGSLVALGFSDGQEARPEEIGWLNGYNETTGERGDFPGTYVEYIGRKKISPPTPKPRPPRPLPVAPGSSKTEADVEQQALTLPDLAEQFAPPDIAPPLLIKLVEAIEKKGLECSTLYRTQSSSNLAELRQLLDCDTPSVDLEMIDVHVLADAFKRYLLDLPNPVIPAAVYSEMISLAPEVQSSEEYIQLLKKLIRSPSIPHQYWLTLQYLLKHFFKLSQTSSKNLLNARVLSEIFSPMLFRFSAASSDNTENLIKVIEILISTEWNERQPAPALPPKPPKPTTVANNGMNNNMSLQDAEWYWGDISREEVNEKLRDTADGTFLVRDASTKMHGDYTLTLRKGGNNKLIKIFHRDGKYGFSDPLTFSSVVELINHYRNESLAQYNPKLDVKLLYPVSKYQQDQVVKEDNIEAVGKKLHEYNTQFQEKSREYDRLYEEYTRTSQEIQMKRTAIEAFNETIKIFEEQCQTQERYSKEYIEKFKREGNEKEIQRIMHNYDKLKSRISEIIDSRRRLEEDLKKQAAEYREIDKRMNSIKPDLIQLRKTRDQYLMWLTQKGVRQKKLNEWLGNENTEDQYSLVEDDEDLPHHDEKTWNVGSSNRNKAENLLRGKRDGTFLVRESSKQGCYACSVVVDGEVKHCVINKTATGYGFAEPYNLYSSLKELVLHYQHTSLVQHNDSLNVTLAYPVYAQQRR
How it was run: as §1

[4] = target: T4, PI3Kβ (Homo sapiens, UniProt P42338); test: PI3 Kinase HTRF assay, PI3Kβ; type: biochemical; settings: 10 μM PIP2, 10 μM ATP; read-out: PI3K β IC50
T4 construct: purchased Millipore Corporation 14-603-K
T4 sequence (P42338 whole entry): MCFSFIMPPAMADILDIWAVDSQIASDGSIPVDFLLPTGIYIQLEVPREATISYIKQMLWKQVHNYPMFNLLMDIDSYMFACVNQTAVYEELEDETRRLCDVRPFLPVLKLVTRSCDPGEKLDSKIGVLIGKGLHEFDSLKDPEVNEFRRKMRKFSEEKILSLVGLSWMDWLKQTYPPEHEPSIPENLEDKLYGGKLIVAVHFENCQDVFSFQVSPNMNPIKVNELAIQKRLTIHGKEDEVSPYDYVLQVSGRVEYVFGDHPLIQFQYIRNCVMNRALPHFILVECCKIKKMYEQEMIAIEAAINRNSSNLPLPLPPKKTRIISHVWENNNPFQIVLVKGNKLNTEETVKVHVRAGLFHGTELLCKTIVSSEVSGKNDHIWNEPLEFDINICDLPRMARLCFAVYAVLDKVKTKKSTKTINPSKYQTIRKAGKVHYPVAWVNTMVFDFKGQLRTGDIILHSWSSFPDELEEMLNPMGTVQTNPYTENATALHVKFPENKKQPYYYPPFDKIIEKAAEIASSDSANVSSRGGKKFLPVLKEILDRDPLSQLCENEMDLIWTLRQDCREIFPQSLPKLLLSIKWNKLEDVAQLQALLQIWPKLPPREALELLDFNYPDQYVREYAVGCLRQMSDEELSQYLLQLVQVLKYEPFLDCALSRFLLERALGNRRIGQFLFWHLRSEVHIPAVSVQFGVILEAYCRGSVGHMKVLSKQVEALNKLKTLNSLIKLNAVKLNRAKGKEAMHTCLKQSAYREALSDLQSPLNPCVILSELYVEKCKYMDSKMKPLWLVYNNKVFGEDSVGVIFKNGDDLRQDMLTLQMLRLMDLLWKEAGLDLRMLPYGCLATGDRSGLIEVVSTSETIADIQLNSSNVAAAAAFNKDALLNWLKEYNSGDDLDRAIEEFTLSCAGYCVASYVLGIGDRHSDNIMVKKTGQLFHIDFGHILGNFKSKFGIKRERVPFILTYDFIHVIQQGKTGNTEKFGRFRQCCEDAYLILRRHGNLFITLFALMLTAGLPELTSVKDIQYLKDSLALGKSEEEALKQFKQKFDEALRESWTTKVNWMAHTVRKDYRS
T4 sequence (P27986 whole entry partner): as the sequence (P27986 whole entry partner) above
How it was run: as §1

[5] = tested on: Balb/c splenic B cells; test: B cell activation and proliferation assay (Alamar Blue); type: cell-based; settings: Mus musculus, read-out: B cell prolif. IC50
Description: The ability of one or more subject compounds to inhibit B cell activation and proliferation is determined according to standard procedures known in the art. For example, an in vitro cellular proliferation assay is established that measures the metabolic activity of live cells. The assay is performed in a 96 well microtiter plate using Alamar Blue reduction. Balb/c splenic B cells are purified over a Ficoll-Paque™ PLUS gradient followed by magnetic cell separation using a MACS B cell Isolation Kit (Miletenyi). Cells are plated in 90 ul at 50,000 cells/well in B Cell Media (RPMI+10% FBS+Penn/Strep+50 uM bME+5 mM HEPES). A compound disclosed herein is diluted in B Cell Media and added in a 10 μl volume. Plates are incubated for 30 min at 37 C and 5% CO2 (0.2% DMSO final concentration). A 50 μl B cell stimulation cocktail is then added containing either 10 ug/ml LPS or 5 ug/ml F(ab′)2 Donkey anti-mouse IgM plus 2 ng/ml recombinant mouse IL4 in B Cell Media. Plates are incubated for 72 hours at 37° C. and 5% CO2. A volume of 15 μl of Alamar Blue reagent is added to each well and plates are incubated for 5 hours at 37 C and 5% CO2. Alamar Blue fluoresce is read at 560Ex/590Em, and IC50 or EC50 values are calculated using GraphPad Prism 5.

T1 sequence (O00329 whole entry): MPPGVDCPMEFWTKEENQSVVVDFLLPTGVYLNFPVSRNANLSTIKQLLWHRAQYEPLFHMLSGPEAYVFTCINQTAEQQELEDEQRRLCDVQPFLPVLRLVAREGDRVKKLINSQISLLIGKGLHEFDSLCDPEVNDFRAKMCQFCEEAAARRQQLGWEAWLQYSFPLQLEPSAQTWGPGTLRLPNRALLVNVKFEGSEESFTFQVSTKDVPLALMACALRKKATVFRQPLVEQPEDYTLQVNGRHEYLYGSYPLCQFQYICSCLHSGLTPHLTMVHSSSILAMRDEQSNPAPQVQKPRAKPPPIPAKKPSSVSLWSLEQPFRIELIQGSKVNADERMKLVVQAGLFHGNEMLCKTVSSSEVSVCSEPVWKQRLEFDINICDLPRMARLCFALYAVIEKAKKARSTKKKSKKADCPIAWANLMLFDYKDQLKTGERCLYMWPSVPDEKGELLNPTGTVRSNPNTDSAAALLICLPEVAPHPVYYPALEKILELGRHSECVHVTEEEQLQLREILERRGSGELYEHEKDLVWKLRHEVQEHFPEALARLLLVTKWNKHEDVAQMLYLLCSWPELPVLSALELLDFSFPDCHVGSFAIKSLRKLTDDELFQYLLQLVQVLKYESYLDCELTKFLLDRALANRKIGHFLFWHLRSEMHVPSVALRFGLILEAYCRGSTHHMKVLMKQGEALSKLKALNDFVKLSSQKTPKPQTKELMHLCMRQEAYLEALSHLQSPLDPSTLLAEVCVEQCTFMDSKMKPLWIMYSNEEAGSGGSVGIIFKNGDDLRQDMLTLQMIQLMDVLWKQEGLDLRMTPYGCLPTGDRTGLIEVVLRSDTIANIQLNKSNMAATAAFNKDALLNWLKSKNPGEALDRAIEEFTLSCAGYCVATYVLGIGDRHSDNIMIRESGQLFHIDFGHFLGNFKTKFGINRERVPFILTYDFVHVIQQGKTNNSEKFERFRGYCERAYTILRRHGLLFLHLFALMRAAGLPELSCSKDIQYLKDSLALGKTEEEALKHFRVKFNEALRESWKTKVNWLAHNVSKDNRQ
T1 sequence (P27986 whole entry partner): as the sequence (P27986 whole entry partner) above

Structure (SMILES)	IC50 [1] [µM]	IC50 [2] [µM]	IC50 [3] [µM]	IC50 [4] [µM]	IC50 [5] [µM]
C[C@H](Nc1ncnc2[nH]cnc12)c1cc2cccc(Cl)c2c(N2CCN(C)CC2)n1 [Compound 46, (S)—N-(1-(8-chloro-1-(4-methylpiperazin-1-yl)isoquinolin-3-yl)ethyl)-9H-purin-6-amine]	< 0.1	> 10	> 10	< 10	< 0.1
CC(C)N1CCC(Oc2nc([C@H](C)Nc3ncnc4[nH]cnc34)cc3cccc(Cl)c23)CC1 [Compound 47, (S)—N-(1-(8-chloro-1-(1-isopropylpiperidin-4-yloxy)isoquinolin-3-yl)ethyl)-9H-purin-6-amine]	< 0.1	> 10	< 10	< 10	< 0.1
C[C@H](Nc1ncnc2[nH]cnc12)c1cc2c(F)cccc2c(CCN2CCOCC2)n1 [Compound 53]	< 0.1	> 10	> 10	> 10	< 0.1
Cc1cccc2cc([C@H](C)Nc3ncnc4[nH]cnc34)nc(OC3CCN(C(C)C)CC3)c12 [Compound 57]	< 0.1	> 10	> 10	< 10	< 1
C[C@H](Nc1ncnc2[nH]cnc12)c1cc2c(F)ccc(Cl)c2c(CCN2CCOCC2)n1 [Compound 68]	< 0.1	< 10	< 10	> 10	< 0.1
C[C@H](Nc1ccnc2ccnn12)c1cc2cccc(Cl)c2c(CCN2CCOCC2)n1 [Compound 73]	< 0.1	< 10	< 10	< 1	< 0.1
C[C@H](Nc1ncnc2ccccc12)c1cc2cccc(Cl)c2c(CCN2CCOCC2)n1 [Compound 74]	< 0.1	< 10	< 10	< 10	< 1
C[C@H](Nc1ncnc2cccnc12)c1cc2cccc(Cl)c2c(CCN2CCOCC2)n1 [Compound 75]	< 0.1	< 1	< 1	< 1	< 0.1
C[C@H](Nc1ccnn2ccnc12)c1cc2ccccc2c(CCN2CCOCC2)n1 [Compound 77, (S)—N-(1-(1-(2-morpholinoethyl)isoquinolin-3-yl)ethyl)imidazo[1,2-b]pyridazin-8-amine]	< 0.1	> 10	> 10	> 10	< 0.1
C[C@H](Nc1ncnc2[nH]cnc12)c1nc(CCN2CCOCC2)c2c(Cl)cccc2c1F [Compound 85, (S)—N-(1-(8-chloro-4-fluoro-1-(2-morpholinoethyl)isoquinolin-3-yl)ethyl)-9H-purin-6-amine]	< 1	> 10	> 10	> 10	< 1
CC(C)N1CCN(c2nc([C@H](C)Nc3ncnc4[nH]cnc34)cc3cccc(Cl)c23)CC1 [Compound 90]	< 0.1	< 10	< 10	< 10	< 0.1
CCN1CCN(c2nc([C@H](C)Nc3ncnc4[nH]cnc34)cc3cccc(Cl)c23)CC1 [Compound 91]	< 0.1	< 10	< 10	< 10	< 0.1
Cc1cccc2cc([C@H](C)Nc3ncnc4[nH]cnc34)nc(OCC3CCN(C)CC3)c12 [Compound 92]	< 0.1	< 10	< 10	< 10	< 0.1
C[C@H](Nc1ncnc2[nH]cnc12)c1cc2cccc(Cl)c2c(SCCN2CCOCC2)n1 [Compound 93, (S)—N-(1-(8-chloro-1-(2-morpholinoethylthio)isoquinolin-3-yl)ethyl)-9H-purin-6-amine]	< 0.1	< 1	< 10	< 1	< 0.1
C[C@H](Nc1ncnc2scnc12)c1cc2cccc(Cl)c2c(N2CCN(C)CC2)n1 [Compound 98]	< 0.1	< 10	< 10	< 1	< 0.1

From patent US8901133B2, “Heterocyclic compounds and uses thereof” (Infinity Pharmaceuticals, Inc., priority 2010, dated 2014)
